According to PubChem BioAssay AID387:

Biological target: Farnesyl pyrophosphate synthase (Homo sapiens) (UniProt P14324)
Experiment: FDPS binders by thermal shift, biophysical, DSF, SYPRO orange, purified protein (AID 387)
Conditions: at 10 µM, protein 2 µM, buffer 10 mM HEPES, pH 7.5, NaCl 150 mM, MgCl4 50 µM, stronger effect = higher value

Sequence of Farnesyl pyrophosphate synthase (Homo sapiens) (P14324 whole entry, looked up): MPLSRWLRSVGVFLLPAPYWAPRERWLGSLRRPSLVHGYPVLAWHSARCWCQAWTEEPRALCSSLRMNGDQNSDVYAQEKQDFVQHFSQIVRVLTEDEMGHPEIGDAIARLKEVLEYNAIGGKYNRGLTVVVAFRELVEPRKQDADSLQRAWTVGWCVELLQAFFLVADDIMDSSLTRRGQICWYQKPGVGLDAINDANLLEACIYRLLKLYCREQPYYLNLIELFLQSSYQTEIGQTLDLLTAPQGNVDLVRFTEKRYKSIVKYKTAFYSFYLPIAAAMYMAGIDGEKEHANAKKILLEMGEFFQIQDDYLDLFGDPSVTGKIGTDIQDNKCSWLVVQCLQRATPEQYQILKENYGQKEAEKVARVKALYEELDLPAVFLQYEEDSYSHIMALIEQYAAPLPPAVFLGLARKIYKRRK

For `O=[P+](O)C(O)(Cc1cccnc1)P(=O)(O)O` (stereo unspecified), the Tm shift was 4.13 Celsius.
